Data as given in patent US4582844A, “Antithrombotic 4,5 di-t-butyl-imidazole derivatives” (Hoffmann-La Roche Inc., priority 1980, dated 1986).

The compounds below were run on Human platelet-rich plasma (blood platelets) (assay: Collagen-induced blood platelet aggregation (aggregometer method of Born; maximum aggregation velocity)). Details: human citrated platelet-rich plasma, 10 min preincubation at 37° C., collagen fibrils.
Assay type: cell-based
Experimental: The maximum aggregation velocity was taken as the test parameter and the effective concentration (EC50) was ascertained from dosage-activity curves.
Human platelet-rich plasma was obtained by centrifugation from citrated venous blood. The experiments were carried out with suspensions of the test substances in 0.9% sodium chloride. 0.18 ml of citrate plasma was treated with a 10 μl suspension of the test compound and incubated at 37° C. for 10 minutes, whereupon the aggregation was initiated by adding 10 μl of a suspension of collagen fibrils.

SMILES	EC50
COc1cc(-c2nc(C(C)(C)C)c(C(C)(C)C)[nH]2)cc(OC)c1OC [4,5-di-t-butyl-2-(3,4,5-trimethoxyphenyl)-imidazole]	720 nM
CC(C)(C)c1nc(-c2ccc3c(c2)OCO3)[nH]c1C(C)(C)C [4,5-di-t-butyl-2-(3,4-methylenedioxyphenyl)-imidazole]	550 nM

The remaining lines, values ahead:

EC50	SMILES
500 nM	CC(C)(C)c1nc(-c2ccc(F)cc2)[nH]c1C(C)(C)C [4,5-Di-t-butyl-2-(4-fluorophenyl)-imidazole]
600 nM	CC(C)(C)c1nc(-c2ccccc2)[nH]c1C(C)(C)C [4,5-Di-t-butyl-2-phenylimidazole, 4,5-di-t-butyl-2-phenylimidazole]
14400 nM	COc1cc(-c2nc(C(C)(C)C)c(C(C)(C)C)[nH]2)cc2c1OCO2 [4,5-di-t-butyl-2-(5-methoxy-3,4-methylenedioxyphenyl)-imidazole]
